Reference: patent US7144879B2, “Substituted metal-phthalocyanines, their preparation and the use thereof” (L. Molteni & C. Dei Fratelli, priority 2000, dated 2006)

Tests used:
Type in all cases: cell-based
[1] = system: Candida albicans (ATCC10231; yeast); assay: Photoinactivation of C. albicans, survival after photodynamic treatment; settings: 1 μM, red light 650-750 nm, 50 mW/cm^2, PBS +5% DMSO, 10 min pre-incubation
Source text: (§1) The compounds synthesized have been assayed for their antifungal and antibacterial (Gram-positive e Gram-negative) activity. For the experiments the following micro-organisms were used: Candida albicans (ATCC10231; yeast), Staphylococcus aureus (ATCC 6538P, MRSA; Gram-positive), Escherichia coli (04; Gram-negative). All the micro-organisms were used in the experiments in a stationary state of growth. An example of experimental protocol used to assess the photoinactivation of micro-organisms is described as follows.
(§2) Cells in a stationary state of growth have been washed in physiological buffered saline solution (PBS) and diluted in order to obtain a cell suspension in the range 10^6÷10^9 cells/ml in PBS or appropriate medium.
(§3) Cell suspensions have then been treated with scalar aliquots of the photosensitising agent to be tested in the range 30÷0.01 μM, eventually as a photosensitizer conjugate. […] In order to determine the percentage of cell population after photoinactivation for each photosensitizer concentration, serially diluted samples resulting from the irradiation have been plated on Sabouraud Dextrose Agar (C. Albicans), on Tryptic Soy Agar (S. aureus), or on other suitable culture media and the data were compared with dark controls.
(§4) The irradiation is carried out with red light (650-750 nm), 50 mW/cm^2.

[2] = system: Staphylococcus aureus (ATCC 6538P, MRSA; Gram-positive); assay: Photoinactivation of S. aureus (MRSA), survival after photodynamic treatment; settings: red light 650-750 nm, 50 mW/cm^2, PBS +5% DMSO, 5 min pre-incubation
Source text: as §1, §2, §3, §4

[3] = system: 3T3 cells; assay: Survival of 3T3 cells (model of mammalian cells) after photodynamic treatment; settings: red light 650-750 nm, 50 mW/cm^2, PBS +5% DMSO, 5 min pre-incubation
Experimental: as §4

[4] = system: Escherichia coli (04; Gram-negative); assay: Photoinactivation of E. coli, survival after photodynamic treatment; settings: red light 650-750 nm, 50 mW/cm^2, PBS +5% DMSO, 5 min pre-incubation
Source text: as §1, §2, §3, §4

[5] = system: erythrocytes; assay: Haemolytic properties, dark and light treatment; settings: for % Haemolysis (Light treatment) 30 J/cm^2 (50 mW/cm^2 × 10 min): light 30 J/cm^2 (50 mW/cm^2 × 10 min)

Compound | Survival (%) ([1]; irradiation 1 min) | Survival (%) ([1]; irradiation 5 min) | Survival (%) ([2]; 1 μM, irradiation 1 min) | Survival (%) ([2]; 1 μM, irradiation 5 min) | Survival (%) ([2]; 10 μM, irradiation 1 min) | Survival (%) ([2]; 10 μM, irradiation 5 min) | Survival (%) ([3]; 1 μM, irradiation 1 min) | Survival (%) ([3]; 1 μM, irradiation 5 min) | Survival (%) ([3]; 10 μM, irradiation 1 min) | Survival (%) ([3]; 10 μM, irradiation 5 min) | Survival (%) ([4]; 1 μM, irradiation 1 min) | Survival (%) ([4]; 1 μM, irradiation 5 min) | Survival (%) ([4]; 10 μM, irradiation 1 min) | Survival (%) ([4]; 10 μM, irradiation 5 min) | % Haemolysis (Dark treatment) ([5]; concentration 0.5 μM) | % Haemolysis (Light treatment) 30 J/cm^2 (50 mW/cm^2 × 10 min) ([5]; concentration 0.5 μM) | % Haemolysis (Dark treatment) ([5]; concentration 1 μM) | % Haemolysis (Light treatment) 30 J/cm^2 (50 mW/cm^2 × 10 min) ([5]; concentration 1 μM) | % Haemolysis (Dark treatment) ([5]; concentration 5 μM) | % Haemolysis (Light treatment) 30 J/cm^2 (50 mW/cm^2 × 10 min) ([5]; concentration 5 μM)
2[1,3-bis-(trimethylammonium)2-propyloxy]zinc(II) phtalocyanine diiodide [Compound 18] | 0.0001% | 0.0001% | 0.0002% | 0.0001% | 0.0001% | 0.0001% | 100% | 97% | 100% | 94% | 100% | 100% | 100% | 2.34% | – | – | – | – | – | –
CN1CCC(Oc2ccc3c4[n]5c(c3c2)=NC2=NC(=Nc3c6ccccc6c([n]3[Zn]5)N=C3N=C(N=4)c4ccccc43)c3ccccc32)CC1 [Compound 4] | – | – | – | – | – | – | – | – | – | – | – | – | – | – | 4.7% | 0.9% | 1.5% | 1.2% | 1.5% | 1.5%
